{
  "source": "patent US20200264191A1",
  "about": "“METHODS AND KITS FOR DIAGNOSIS OF FAMILIAL MEDITERRANEAN FEVER” (INSERM (Institut National de la Santé et de la Recherche …, priority 2017, published 2020)",
  "key": {"[1]": {"tested_on": "Primary monocytes from HD or FMF patients", "experiment": "IL-1β release by primary monocytes (ELISA of supernatant)", "settings": "LPS-primed; Ro 31-8220 100 μM or ATP 2.5 mM, 1.5 h", "from_the_text": "Blood was drawn in heparin-coated tubes and kept at room temperature overnight. The next day, peripheral blood mononuclear cells (PBMCs) were isolated by density-gradient centrifugation using Lymphocyte Separation Medium (Eurobio) [23]. Monocytes were isolated from PBMCs by magnetic selection using CD14 MicroBeads (Miltenyi Biotec) [24] and the AutoMACS Pro Separator (Miltenyi Biotec) following manufacturer's instructions. Monocytes were enumerated in the presence of a viability marker (propidium iodide, 10 μg/ml) by flow cytometry (BD Accuri C6 Flow Cytometer®) [25].\nWhen indicated, monocytes were incubated for 3 hours in the presence of LPS (10 ng/ml, Invivogen). […] Following the incubation, cells were centrifuged and supernatants were collected.\nLevels of IL-1β in monocyte supernatants were quantified by ELISA (R&D Systems). […] Three technical replicates per conditions were done."}, "PKCβII": {"target": "PKCβII (Homo sapiens, UniProt P05771)", "sequence (P05771 1-673 isoform P05771-2)": "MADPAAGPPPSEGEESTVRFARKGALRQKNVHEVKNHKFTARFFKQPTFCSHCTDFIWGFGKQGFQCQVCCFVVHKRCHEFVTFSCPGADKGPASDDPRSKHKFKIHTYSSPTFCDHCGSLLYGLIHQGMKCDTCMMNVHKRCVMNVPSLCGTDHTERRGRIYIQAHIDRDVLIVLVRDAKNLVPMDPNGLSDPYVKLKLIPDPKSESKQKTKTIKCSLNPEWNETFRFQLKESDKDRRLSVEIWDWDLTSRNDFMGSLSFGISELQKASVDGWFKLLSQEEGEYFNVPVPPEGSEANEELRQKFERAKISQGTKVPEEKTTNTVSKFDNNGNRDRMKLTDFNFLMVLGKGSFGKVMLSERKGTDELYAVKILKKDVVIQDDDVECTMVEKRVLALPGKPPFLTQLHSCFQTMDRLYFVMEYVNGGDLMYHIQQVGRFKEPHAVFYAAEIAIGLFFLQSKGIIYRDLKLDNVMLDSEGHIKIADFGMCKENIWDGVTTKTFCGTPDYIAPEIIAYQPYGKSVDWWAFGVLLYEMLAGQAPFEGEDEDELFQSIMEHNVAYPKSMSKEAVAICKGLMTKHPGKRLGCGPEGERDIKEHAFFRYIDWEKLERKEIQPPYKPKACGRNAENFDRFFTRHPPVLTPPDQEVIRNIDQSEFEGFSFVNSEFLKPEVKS", "settings": "cell-free assays where stated; read-out: IC50 for PKCβII (PKCβ2); cited from earlier work"}, "PKCα": {"target": "PKCα (Homo sapiens, UniProt P17252)", "settings": "cell-free assays where stated; cited from earlier work"}, "PKCγ": {"target": "PKCγ (Homo sapiens, UniProt P05129)", "settings": "cell-free assays where stated; cited from earlier work"}, "PKCβI": {"target": "PKCβI (Homo sapiens, UniProt P05771)", "sequence (P05771 whole entry)": "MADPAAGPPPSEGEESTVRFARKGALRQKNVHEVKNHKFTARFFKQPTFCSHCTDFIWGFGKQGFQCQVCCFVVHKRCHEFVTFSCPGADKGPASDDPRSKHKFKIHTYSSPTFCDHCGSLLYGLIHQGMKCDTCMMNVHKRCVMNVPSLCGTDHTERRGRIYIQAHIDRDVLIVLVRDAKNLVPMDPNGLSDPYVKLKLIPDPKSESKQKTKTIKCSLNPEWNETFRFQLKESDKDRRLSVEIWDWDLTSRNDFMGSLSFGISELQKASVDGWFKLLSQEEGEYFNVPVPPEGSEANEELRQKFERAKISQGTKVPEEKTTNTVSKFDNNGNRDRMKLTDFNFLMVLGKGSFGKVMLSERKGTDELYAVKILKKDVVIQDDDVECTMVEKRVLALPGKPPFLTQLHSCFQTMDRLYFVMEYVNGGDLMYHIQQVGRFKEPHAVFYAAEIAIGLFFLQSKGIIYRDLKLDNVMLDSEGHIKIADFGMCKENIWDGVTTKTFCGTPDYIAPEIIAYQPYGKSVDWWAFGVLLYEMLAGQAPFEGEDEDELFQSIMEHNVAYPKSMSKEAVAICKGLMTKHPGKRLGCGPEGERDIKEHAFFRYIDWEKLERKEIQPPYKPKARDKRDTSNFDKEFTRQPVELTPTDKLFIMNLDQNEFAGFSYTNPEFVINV", "settings": "cell-free assays where stated; read-out: IC50 for PKCβI (PKCβ1); cited from earlier work"}, "PKC": {"tested_on": "PKC", "settings": "cited from earlier work"}, "PKA": {"tested_on": "PKA", "settings": "cited from earlier work"}, "[2]": {"tested_on": "apamin-sensitive K+ channels", "settings": "cited from earlier work"}, "PKC (Rat brain)": {"tested_on": "PKC (Rat brain)", "settings": "cited from earlier work"}, "PKCζ": {"target": "T1, PKCζ (Homo sapiens, UniProt Q05513)", "T1 sequence (Q05513 1-592)": "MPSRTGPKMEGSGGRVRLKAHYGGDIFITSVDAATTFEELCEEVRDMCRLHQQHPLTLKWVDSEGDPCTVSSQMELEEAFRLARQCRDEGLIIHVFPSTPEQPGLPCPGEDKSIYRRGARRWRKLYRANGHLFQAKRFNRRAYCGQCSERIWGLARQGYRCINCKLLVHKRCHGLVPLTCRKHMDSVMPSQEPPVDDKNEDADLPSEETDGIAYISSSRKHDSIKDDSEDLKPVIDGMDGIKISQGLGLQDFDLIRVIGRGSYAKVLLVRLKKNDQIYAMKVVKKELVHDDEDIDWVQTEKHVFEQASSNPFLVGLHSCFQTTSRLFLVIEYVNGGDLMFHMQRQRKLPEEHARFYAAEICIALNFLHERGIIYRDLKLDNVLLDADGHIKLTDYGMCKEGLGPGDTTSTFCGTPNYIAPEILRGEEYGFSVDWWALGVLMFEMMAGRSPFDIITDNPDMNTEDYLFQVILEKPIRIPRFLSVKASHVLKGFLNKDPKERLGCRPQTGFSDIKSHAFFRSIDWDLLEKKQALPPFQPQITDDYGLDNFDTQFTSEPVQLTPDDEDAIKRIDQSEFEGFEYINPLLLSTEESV", "settings": "cited from earlier work"}, "PKCμ": {"target": "T2, PKCμ (Homo sapiens, UniProt Q15139)", "T2 sequence (Q15139 1-912)": "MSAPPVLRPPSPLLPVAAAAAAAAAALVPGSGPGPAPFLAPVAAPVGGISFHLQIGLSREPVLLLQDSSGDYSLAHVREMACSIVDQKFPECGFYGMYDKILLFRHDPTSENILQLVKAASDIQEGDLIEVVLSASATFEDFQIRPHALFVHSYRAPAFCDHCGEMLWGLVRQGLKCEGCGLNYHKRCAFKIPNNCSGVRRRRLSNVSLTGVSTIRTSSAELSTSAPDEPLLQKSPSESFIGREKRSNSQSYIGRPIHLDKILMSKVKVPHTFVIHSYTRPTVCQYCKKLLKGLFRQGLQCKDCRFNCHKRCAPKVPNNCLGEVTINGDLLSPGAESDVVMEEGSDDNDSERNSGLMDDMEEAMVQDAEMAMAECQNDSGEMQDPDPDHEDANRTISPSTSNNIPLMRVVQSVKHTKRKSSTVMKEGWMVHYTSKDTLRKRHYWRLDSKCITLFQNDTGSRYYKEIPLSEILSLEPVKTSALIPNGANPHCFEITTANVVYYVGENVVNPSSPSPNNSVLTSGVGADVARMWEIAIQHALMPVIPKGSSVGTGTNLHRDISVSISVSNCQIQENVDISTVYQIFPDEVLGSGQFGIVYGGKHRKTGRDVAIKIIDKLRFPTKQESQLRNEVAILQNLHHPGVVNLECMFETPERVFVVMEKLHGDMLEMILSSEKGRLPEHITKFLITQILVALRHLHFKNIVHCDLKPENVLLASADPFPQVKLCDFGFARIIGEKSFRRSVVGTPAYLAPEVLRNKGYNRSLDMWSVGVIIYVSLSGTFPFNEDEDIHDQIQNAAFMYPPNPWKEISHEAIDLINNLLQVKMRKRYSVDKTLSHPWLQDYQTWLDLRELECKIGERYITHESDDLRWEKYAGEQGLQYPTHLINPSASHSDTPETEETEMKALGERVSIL", "settings": "cited from earlier work"}, "PKCδ": {"target": "PKCδ (Homo sapiens, UniProt Q05655)", "sequence (Q05655 whole entry)": "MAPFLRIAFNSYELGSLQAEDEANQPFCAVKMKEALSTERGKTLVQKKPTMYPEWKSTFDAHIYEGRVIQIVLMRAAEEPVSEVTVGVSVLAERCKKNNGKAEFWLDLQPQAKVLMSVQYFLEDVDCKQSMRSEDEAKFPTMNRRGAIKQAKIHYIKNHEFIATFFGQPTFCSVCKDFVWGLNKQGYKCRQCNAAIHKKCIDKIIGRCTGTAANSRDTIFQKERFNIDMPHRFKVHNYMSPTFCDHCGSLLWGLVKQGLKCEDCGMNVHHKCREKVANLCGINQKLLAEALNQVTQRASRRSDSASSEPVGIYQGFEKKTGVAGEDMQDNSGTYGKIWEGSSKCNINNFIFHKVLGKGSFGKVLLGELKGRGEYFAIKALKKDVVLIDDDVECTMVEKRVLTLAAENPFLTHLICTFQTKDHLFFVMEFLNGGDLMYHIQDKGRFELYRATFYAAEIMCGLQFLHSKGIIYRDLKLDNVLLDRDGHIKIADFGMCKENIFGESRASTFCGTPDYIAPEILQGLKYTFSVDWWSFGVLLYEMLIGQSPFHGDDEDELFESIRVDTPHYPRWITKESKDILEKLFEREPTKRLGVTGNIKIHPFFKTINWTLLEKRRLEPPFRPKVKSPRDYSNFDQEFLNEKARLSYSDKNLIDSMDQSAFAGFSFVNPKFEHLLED", "settings": "cell-free assays where stated; cited from earlier work"}, "PKCβ": {"target": "PKCβ (Homo sapiens, UniProt P05771)", "sequence (P05771 whole entry, species assumed)": "as the sequence (P05771 whole entry) above", "settings": "cell-free assays where stated; cited from earlier work"}, "PI3K": {"tested_on": "PI3K", "settings": "cited from earlier work"}, "PKN2": {"target": "PKN2 (Homo sapiens, UniProt Q16513)", "sequence (Q16513 whole entry)": "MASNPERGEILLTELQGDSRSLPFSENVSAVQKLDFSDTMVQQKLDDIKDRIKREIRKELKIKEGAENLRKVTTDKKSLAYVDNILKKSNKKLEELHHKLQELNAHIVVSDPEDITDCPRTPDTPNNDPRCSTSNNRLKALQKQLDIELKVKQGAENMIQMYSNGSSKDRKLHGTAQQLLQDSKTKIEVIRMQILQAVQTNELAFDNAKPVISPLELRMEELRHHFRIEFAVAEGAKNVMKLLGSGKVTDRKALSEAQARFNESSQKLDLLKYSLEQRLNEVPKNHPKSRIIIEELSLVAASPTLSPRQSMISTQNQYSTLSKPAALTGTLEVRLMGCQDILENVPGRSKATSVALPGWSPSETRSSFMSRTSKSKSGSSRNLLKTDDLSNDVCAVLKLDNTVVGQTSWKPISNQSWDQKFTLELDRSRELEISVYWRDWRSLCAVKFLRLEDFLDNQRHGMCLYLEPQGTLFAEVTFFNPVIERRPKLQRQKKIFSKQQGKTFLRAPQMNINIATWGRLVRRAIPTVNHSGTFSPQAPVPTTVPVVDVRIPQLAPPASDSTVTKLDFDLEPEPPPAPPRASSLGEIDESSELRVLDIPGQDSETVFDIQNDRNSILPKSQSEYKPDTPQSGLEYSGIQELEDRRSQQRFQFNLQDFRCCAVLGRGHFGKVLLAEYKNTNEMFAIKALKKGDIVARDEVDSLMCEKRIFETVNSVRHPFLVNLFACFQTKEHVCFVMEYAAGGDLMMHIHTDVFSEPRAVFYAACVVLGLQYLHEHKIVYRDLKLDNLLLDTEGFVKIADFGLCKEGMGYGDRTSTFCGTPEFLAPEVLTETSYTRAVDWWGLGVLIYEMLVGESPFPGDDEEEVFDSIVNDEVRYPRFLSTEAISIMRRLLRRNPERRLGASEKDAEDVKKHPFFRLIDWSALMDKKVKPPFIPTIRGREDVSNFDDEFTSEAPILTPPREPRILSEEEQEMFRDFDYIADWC", "settings": "cited from earlier work"}, "PKCε": {"target": "T3, PKCε (Homo sapiens, UniProt Q02156)", "T3 sequence (Q02156 1-737)": "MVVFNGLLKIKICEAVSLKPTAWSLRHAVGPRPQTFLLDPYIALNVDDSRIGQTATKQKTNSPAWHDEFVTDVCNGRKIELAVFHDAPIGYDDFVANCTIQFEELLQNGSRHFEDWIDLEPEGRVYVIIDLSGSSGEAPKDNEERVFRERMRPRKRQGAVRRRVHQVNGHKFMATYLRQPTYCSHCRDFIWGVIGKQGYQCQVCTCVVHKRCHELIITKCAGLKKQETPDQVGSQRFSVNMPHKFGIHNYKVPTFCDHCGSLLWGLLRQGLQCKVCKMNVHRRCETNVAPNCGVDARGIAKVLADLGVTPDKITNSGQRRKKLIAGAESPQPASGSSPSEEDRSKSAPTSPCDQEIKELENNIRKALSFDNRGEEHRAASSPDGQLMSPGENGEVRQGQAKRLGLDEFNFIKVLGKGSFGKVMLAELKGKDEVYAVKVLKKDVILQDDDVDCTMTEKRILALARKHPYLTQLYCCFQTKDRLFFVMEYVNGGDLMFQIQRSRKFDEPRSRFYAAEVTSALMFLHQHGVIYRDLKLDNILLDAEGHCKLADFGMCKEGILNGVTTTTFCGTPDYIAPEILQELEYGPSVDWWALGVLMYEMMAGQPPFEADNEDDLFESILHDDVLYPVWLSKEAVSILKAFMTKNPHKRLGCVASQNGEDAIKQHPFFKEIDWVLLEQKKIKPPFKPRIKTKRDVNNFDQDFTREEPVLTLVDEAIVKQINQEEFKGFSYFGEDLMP", "settings": "cell-free assays where stated; cited from earlier work"}, "PKCθ": {"target": "PKCθ (Homo sapiens, UniProt Q04759)", "settings": "cell-free assay; cited from earlier work"}, "[3]": {"tested_on": "Primary monocytes from HD or FMF patients", "experiment": "Monocyte cell death by propidium iodide incorporation", "format": "cell-based, human", "settings": "for difference in AUC of cell death kinetics between FMF and HD monocytes (in words): UCN-01 12.5 μM unprimed, or LPS then nigericin 5 μM", "method": "Propidium iodide incorporation was monitored every 5 minutes from 5 minutes to 105 minutes post-UCN-01/nigericin stimulation using a fluorimeter. Cell death was calculated using TX-100-treated cells (100% cell death) and normalized cell death kinetics are presented (A, D). Each symbol corresponds to the average values of the normalized cell death of monocytes from 17 HD and […]. Mean and standard deviations are shown at each time point. […] (C-G) The time post-treatment needed to reach 20% monocytes cell death was calculated from each HD (n=17) and FMF patients (n=13) cell death kinetics. […] The bar represents the mean.\nCell death was determined by measuring propidium iodide incorporation/fluorescence at 1 h30 post stauroporin addition. […] The bar represents the mean. Cell death was normalized using TX-100-treated cells (100% cell death). With a cell death threshold set at 10% (horizontal line), this assay discriminates healthy donors from FMF patients.\nThree technical replicates per conditions were done."}, "[4]": {"settings": "LPS 10 ng/ml 3 h, then nigericin 5 μM"}},
  "data": [
    {"smiles": "Nc1ncnc2c1ncn2[C@@H]1O[C@H](COP(=O)(O)OP(=O)(O)OP(=O)(O)O)[C@@H](O)[C@H]1O", "note": "[ATP]", "values": [
      {"measurement": "difference in IL-1β release between FMF and HD monocytes (in words)", "setting": "[1]", "value": "did not observe any difference"}
    ]},
    {"smiles": "CN(C)CCCn1cc(C2=C(c3c[nH]c4ccccc34)C(=O)NC2=O)c2ccccc21", "note": "[Bisindolylmaleimide I]", "values": [
      {"measurement": "IC50", "setting": "PKCβII", "value": 0.016, "unit": "µM"},
      {"measurement": "IC50", "setting": "PKCα", "value": 0.02, "unit": "µM"},
      {"measurement": "IC50", "setting": "PKCγ", "value": 0.02, "unit": "µM"},
      {"measurement": "IC50", "setting": "PKCβI", "value": 0.017, "unit": "µM"},
      {"measurement": "selectivity for PKC as compared to EGFR, PDGFR and insulin receptor", "setting": "PKC", "value": "more than 3000 fold"}
    ]},
    {"smiles": "O=c1ccc2ccc(O)c(O)c2o1", "note": "[Daphnetin]", "values": [
      {"measurement": "IC50", "setting": "PKA", "value": 9.33, "unit": "µM"},
      {"measurement": "IC50", "setting": "PKC", "value": 25, "unit": "µM"}
    ]},
    {"smiles": "Cc1cc(N)c2ccccc2[n+]1CCCCCCCCCC[n+]1c(C)cc(N)c2ccccc21", "note": "[Dequalinium Chloride]", "values": [
      {"measurement": "IC50", "setting": "[2]", "value": 1.1, "unit": "µM"},
      {"measurement": "IC50", "setting": "PKC", "value": "7 to 18", "unit": "µM"}
    ]},
    {"smiles": "Cn1c2ccccc2c2c3c(c4c5ccccc5n(CCC#N)c4c21)CNC3=O", "note": "[Go6976]", "values": [
      {"measurement": "IC50", "setting": "PKC (Rat brain)", "value": 0.0079, "unit": "µM"}
    ]},
    {"smiles": "COc1ccc2c(c1)c(C1=C(c3c[nH]c4ccccc34)C(=O)NC1=O)cn2CCCN(C)C", "note": "[Go 6983]", "values": [
      {"measurement": "activity on PKCζ (in words)", "setting": "PKCζ", "value": "less potent"},
      {"measurement": "IC50", "setting": "PKCα", "value": 0.007, "unit": "µM"},
      {"measurement": "IC50", "setting": "PKCγ", "value": 0.006, "unit": "µM"},
      {"measurement": "activity on PKCμ (in words)", "setting": "PKCμ", "value": "inactive"},
      {"measurement": "IC50", "setting": "PKCδ", "value": 0.01, "unit": "µM"},
      {"measurement": "IC50", "setting": "PKCβ", "value": 0.007, "unit": "µM"}
    ]},
    {"smiles": "O=c1c(O)c(-c2ccc(O)c(O)c2)oc2cc(O)cc(O)c12", "note": "[Quercetin]", "values": [
      {"measurement": "IC50", "setting": "PI3K", "value": "2.4 to 5.4", "unit": "µM"}
    ]},
    {"smiles": "CS(=O)(=O)O.Cn1cc(C2=C(c3cn(CCCSC(=N)N)c4ccccc34)C(=O)NC2=O)c2ccccc21", "note": "[Ro 31-8220 Mesylate]", "values": [
      {"measurement": "IC50", "setting": "PKCβII", "value": 0.014, "unit": "µM"},
      {"measurement": "difference in IL-1β release between FMF and HD monocytes (in words)", "setting": "[1]", "value": "same trends"},
      {"measurement": "efficacy to inhibit PKN2 (in words)", "setting": "PKN2", "value": "low efficacy"},
      {"measurement": "IC50", "setting": "PKCα", "value": 0.005, "unit": "µM"},
      {"measurement": "IC50", "setting": "PKCγ", "value": 0.027, "unit": "µM"},
      {"measurement": "IC50", "setting": "PKCβI", "value": 0.024, "unit": "µM"},
      {"measurement": "IC50", "setting": "PKCε", "value": 0.024, "unit": "µM"}
    ]},
    {"smiles": "CN1CCN(c2nc(C3=C(c4c[nH]c5ccccc45)C(=O)NC3=O)c3ccccc3n2)CC1", "note": "[Sotrastaurin]", "values": [
      {"measurement": "activity on PKCζ (in words)", "setting": "PKCζ", "value": "inactive"},
      {"measurement": "Ki", "setting": "PKCθ", "value": 0.00022, "unit": "µM"}
    ]},
    {"smiles": "CN[C@@H]1C[C@H]2O[C@@](C)([C@@H]1OC)n1c3ccccc3c3c4c(c5c6ccccc6n2c5c31)C(=O)N[C@H]4O", "note": "[UCN-01, 7-hydroxystaurosporine]", "values": [
      {"measurement": "difference in AUC of cell death kinetics between FMF and HD monocytes (in words)", "setting": "[3]", "value": "statistical difference"},
      {"measurement": "time to reach 20% cell death, FMF patients' monocytes", "setting": "[3]; UCN-01 12.5 μM, no priming", "value": "less than 50 minutes"},
      {"measurement": "IC50", "setting": "PKCε", "value": 0.53, "unit": "µM"}
    ]},
    {"smiles": "CO[C@@H]1C[C@@H](C[C@H]2CC[C@H](C)[C@H]([C@@H](C)C(=O)O)O2)O[C@]2(O[C@](C)([C@H]3CC[C@@](C)([C@@H]4O[C@@H]([C@H]5O[C@@](O)(CO)[C@H](C)C[C@@H]5C)C[C@@H]4C)O3)C[C@H]2C)[C@@H]1C", "note": "[nigericin]", "values": [
      {"measurement": "time to reach 20% cell death, FMF patients' monocytes", "setting": "[3]; [4]", "value": 74, "unit": "min"},
      {"measurement": "time to reach 20% cell death, monocytes from healthy controls", "setting": "[3]; [4]", "value": 72, "unit": "min"},
      {"measurement": "difference in AUC of cell death kinetics between FMF and HD monocytes (in words)", "setting": "[3]", "value": "did not demonstrate any statistical difference"}
    ]}
  ]
}
